Measured values as given in patent USRE44599E1, “Quinazolinones as inhibitors of human phosphatidylinositol 3-kinase delta” (ICOS Corporation, priority 2004, dated 2013).

Columns and labels:
neutrophil [1] = conditions: cited from earlier work
neutrophil [2] = conditions: cited from earlier work; remark: listed apart in the source
osteoclasts = experiment: Osteoclast function (pit depths on dentine slices); assay type: cell-based, mouse; conditions: PI3K inhibitors 100 nM, 72 hr
Experimental: To analyze the effect of the present PI3Kδ inhibitor compounds on osteoclasts, mouse bone marrow cells are isolated and differentiated to osteoclasts by treating the cells with Macrophage Colony Stimulating Factor^−1 (mCSF^−1) and Osteoprotegerin Ligand (OPGL) in serum-containing medium (αMEM with 10% heat-inactivated FBS; Sigma) for 3 days. On day four, when the osteoclasts had developed, the medium is removed and cells are harvested. The osteoclasts are plated on dentine slices at 10^5 cells/well in growth medium, i.e., αMEM containing 1% serum and 2% BSA with […] OPGL and 10 ng/mL mCSF^−1. After 3 hr, the medium is changed to 1% serum and 1% BSA, with or without osteopontin (25 μg/mL) and the PI3K inhibitors (100 nM). The medium is changed every 24 hours with fresh osteopontin and the inhibitors. At 72 hr, the medium is removed, and the dentine surfaces are washed with water to remove cell debris and stained with acid hematoxylin. Excess stain is washed and the pit depths are quantitated using confocal microscopy.

Class I PI 3-kinases = conditions: read-out: IC50 against each of the various Class I PI 3-kinases; cited from earlier work

In the case of O=c1cc(N2CCOCC2)oc2c(-c3ccccc3)cccc12 [LY294002], the neutrophil migration (neutrophil [1]) is listed as “block neutrophil migration”, the superoxide release (neutrophil [2]) is listed as “block neutrophil migration and superoxide release” and the osteoclast activity (osteoclasts) is listed as “inhibited osteoclast activity”.
In the case of COC[C@H]1OC(=O)c2coc3c2[C@@]1(C)C1=C(C3=O)[C@@H]2CCC(=O)[C@@]2(C)C[C@H]1OC(C)=O [wortmannin], the neutrophil migration (neutrophil [1]) is given as “block neutrophil migration”, the IC50 (Class I PI 3-kinases) is given as 1 to 10 nM and the superoxide release (neutrophil [2]) is given as “block neutrophil migration and superoxide release”. The osteoclast activity (osteoclasts) was “inhibited osteoclast activity”.
